From PubChem BioAssay AID588628 (NMMLSC, 2011)
“And” between values parts separate entries of the source, which are not always exact repeats. Equal entries are not always repeated. The source made the active and inactive calls.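 Rule for the calls: active = fitted EC50 of 10 µM or less with% response changing by at least 30 points across doses; inactive = the rest.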

molecular target: GTPase HRas (Homo sapiens) (UniProt P01112); assay: activated H-Ras mutant GTP-binding inhibitors, SAR follow-up, biochemical, multiplex bead flow cytometry, round 2 (AID 588628); settings: bead-based flow cytometry, Bodipy-FL-GTP binding, EDTA
Sequence (P01112 whole entry, looked up): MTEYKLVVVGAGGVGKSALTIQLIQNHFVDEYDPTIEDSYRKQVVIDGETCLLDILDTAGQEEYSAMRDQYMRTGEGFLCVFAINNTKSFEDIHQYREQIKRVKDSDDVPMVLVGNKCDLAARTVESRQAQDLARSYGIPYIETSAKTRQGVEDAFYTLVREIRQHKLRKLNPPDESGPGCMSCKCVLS

Structure (SMILES) | EC50
CCC1(C)Cc2c(sc(NC(=S)NC(=O)c3ccccc3)c2C(=O)O)CO1 (centres undefined) | 35 nM
CC1(C)Cc2c(sc(NC(=S)NC(=O)c3cccs3)c2C(=O)O)CO1 | 24 nM
CC1(C)Cc2c(sc(NC(=S)NC(=O)c3ccco3)c2C(=O)O)CO1 | 65 nM
CC1(C)Cc2c(sc(NC(=S)NC(=O)c3ccccc3Br)c2C(=O)O)CO1 | 1210 nM
CC1(C)Cc2c(sc(NC(=S)NC(=O)c3ccccc3F)c2C(=O)O)CO1 | 283 nM
CC1(C)CCc2sc(NC(=S)NC(=O)c3ccccc3)c(C(=O)O)c2C1 | 53 nM
Cc1cccc(C(=O)NC(=S)Nc2sc3c(c2C(=O)O)CC(C)(C)OC3)c1 | 854 nM
CC1(C)Cc2c(sc(NC(=S)NC(=O)c3cccc(F)c3)c2C(=O)O)CO1 | 535 nM
COc1ccc(C(=O)NC(=S)Nc2sc3c(c2C(=O)O)CC(C)(C)OC3)cc1 | 276 nM
Cc1ccccc1C(=O)NC(=S)Nc1sc2c(c1C(=O)O)CC(C)(C)OC2 | 379 nM
CC1Cc2c(sc(NC(=S)NC(=O)c3ccccc3)c2C(=O)O)CO1 (centres undefined) | 217 nM
CC(C)(C)C1Cc2c(sc(NC(=S)NC(=O)c3ccccc3)c2C(=O)O)CO1 (centres undefined) | 125 nM
CC1(C)Cc2c(sc(NC(=O)NC(=O)c3ccccc3)c2C(=O)O)CO1 | 824 nM
CC1(C)Cc2c(sc(NC(=S)NC(=O)c3ccccc3)c2C(=O)O)CO1 | 21 nM
CC1(C)Cc2c(sc(NC(=S)NC(=O)C3CCCCC3)c2C(=O)O)CO1 | 585 nM
O=C(NC(=S)Nc1sc2c(c1C(=O)O)CC1(CCCC1)OC2)c1ccccc1 | 33 nM
COc1cccc(C(=O)NC(=S)Nc2sc3c(c2C(=O)O)CC(C)(C)OC3)c1 | 205 nM
Cc1ccc(C(=O)NC(=S)Nc2sc3c(c2C(=O)O)CC(C)(C)OC3)cc1 | 178 nM
O=C(NC(=S)Nc1sc2c(c1C(=O)O)CCOC2)c1ccccc1 | 85 nM and 207 nM
CC1(C)Cc2c(sc(NC(=S)NC(=O)c3ccc(F)cc3)c2C(=O)O)CO1 | 91 nM
CC1(C)Cc2c(sc(NC(=S)NC(=O)c3ccc(Br)cc3)c2C(=O)O)CO1 | 564 nM

same assay, conditions: bead-based flow cytometry, Bodipy-FL-GTP binding, EDTA; at 100 µM (top of the series)

Structure (SMILES) | % response (binding remaining)
CC1(C)Cc2c(sc(NC(=S)Nc3ccccc3)c2C(=O)O)CO1 | inactive
COc1ccccc1C(=O)NC(=S)Nc1sc2c(c1C(=O)O)CC(C)(C)OC2 | inactive
CC1(C)Cc2c(sc(NC(=S)NC(=O)c3cccc(Br)c3)c2C(=O)O)CO1 | inactive
